Tests used:
[1] = mouse, in vivo
Description: Pharmacokinetics—Naive female NCr nude (nu/nu) mice, 8-10 weeks old, were purchased from Taconic Farms (Germantown, NY). […] ELISA was utilized to determine serum concentrations of total hRS7 IgG by competing for the binding to an anti-hRS7 IgG idiotype antibody with a horseradish peroxidase conjugate of hRS7. […] Pharmacokinetic (PK) parameters were computed by noncompartmental analysis using Phoenix WinNonlin software (version 6.3; Pharsight Corp., Mountainview, CA).

Capan-1 = test: Combination 90Y-hPAM4 RAIT + ADC, Capan-1 xenograft; type: in vivo, mouse
Description: Objective responses occurred in most animals, but they were more robust in both of the combination groups as compared to each agent given alone. […] These studies provide the first evidence that combined radioimmunotherapy and ADC enhances efficacy at safe doses.

[2] = molecular target: T1, recombinant human neonatal receptor (FcRn) (Homo sapiens, UniProt P55899); test: Surface plasmon resonance (BIACORE), FcRn; type: binding; details: low-density FcRn chip, three independent runs
T1 construct: made in house
T1 sequence (P55899 24-297 limits assumed): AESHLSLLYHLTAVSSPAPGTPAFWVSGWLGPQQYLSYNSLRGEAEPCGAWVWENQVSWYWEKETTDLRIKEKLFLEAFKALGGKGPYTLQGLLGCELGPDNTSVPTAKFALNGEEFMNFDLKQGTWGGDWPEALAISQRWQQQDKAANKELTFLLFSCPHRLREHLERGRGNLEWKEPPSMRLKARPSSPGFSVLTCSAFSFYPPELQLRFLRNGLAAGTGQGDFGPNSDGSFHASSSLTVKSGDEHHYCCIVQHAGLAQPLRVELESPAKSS
T1 sequence (P61769 21-119 partner): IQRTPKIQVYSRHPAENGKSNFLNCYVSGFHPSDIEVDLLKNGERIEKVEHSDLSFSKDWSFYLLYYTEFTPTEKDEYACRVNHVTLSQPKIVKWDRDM
Description: (§1) Surface Plasmon Resonance Binding (BIACORE)—Briefly, rhTrop-2/TACSTD2 (Sino Biological, Inc.) or recombinant human neonatal receptor (FcRn), produced as described (Wang et al., 2011, Drug Metab Dispos 39:1469-77), was immobilized with an amine coupling kit (GE Healthcare; Cat. No. BR-1000-50) on a CM5 sensor chip (GE Healthcare; Cat. #BR-1000-12) following manufacturer's instructions for a low-density chip. […] Each set would make up a separate run on the BIACORE (BIACORE-X; Biacore Inc., Piscataway, NJ) and data were analyzed using BIAevaluation Software (Biacore Inc., v4.1). Analysis was performed with a 1:1 (Langmuir) Binding Model and Fit, using all five concentration points for each sample run to determine the best fit (lowest χ^2 value). The KDvalue was calculated using the formula KD=kd1/ka1, where kd1 is the dissociation rate-constant and ka1 is the association-rate constant.

BxPC-3 = test: dsDNA breaks, γH2AX induction in BxPC-3; type: cell-based, human; details: for Mean Fluorescence Intensity, γH2AX: untreated 2516 ± 191
Procedure: Assessment of Double-Stranded DNA Breaks In Vitro—For drug activity testing, BxPC-3 cells were seeded in 6-well plates at 5×10^5 cells/well and held at 37° C. overnight. […] The following morning, cells were trypsinized briefly, spun down, stained with Fixable Viability Stain 450 (BD Biosciences, San Jose, CA), washed with 1% BSA-PBS, and then fixed in 4% formalin for 15 min, washed again and permeabilized in 0.15% Triton-X100 in PBS for another 15 min. After washing twice with 1% BSA-PBS, cells were incubated with mouse anti-γH2AX-AF488 (EMD Millipore Corporation, Temecula, CA) for 45 min at 4° C. The signal intensity of γH2AX was measured by flow cytometry using a BD FACSCanto (BD Biosciences, San Jose, CA).

[3] = system: SK-MES-1 human squamous cell lung tumors; test: SK-MES-1 xenograft therapy; type: in vivo; details: for tumor volume (TV): 0.4 mg/kg, 28 days
Procedure: (§2) NCr female athymic nude (nu/nu) mice, 4 to 8 weeks old, and male Swiss-Webster mice, 10 weeks old, were purchased from Taconic Farms. […] Tumor volume (TV) was determined by measurements in 2 dimensions using calipers, with volumes defined as: L×w^2/2, where L is the longest dimension of the tumor and w is the shortest. […] This dosing frequency reflected a consideration of the conjugate's serum half-life in vitro, to allow a more continuous exposure to the ADC.
(§3) Statistics—Growth curves are shown as percent change in initial TV over time. Statistical analysis of tumor growth was based on area under the curve (AUC). Profiles of individual tumor growth were obtained through linear-curve modeling. An f-test was employed to determine equality of variance between groups before statistical analysis of growth curves. A 2-tailed t-test was used to assess statistical significance between the various treatment groups and controls, except for the saline control, where a 1-tailed t-test was used (significance at P≤0.05). Statistical comparisons of AUC were performed only up to the time that the first animal within a group was euthanized due to progression.

COLO 205 tumors = test: COLO 205 xenograft therapy; type: in vivo
Procedure: as §2, §3

p21^Waf1/Cip1 and p53 [4] = test: Signaling events (p21Waf1/Cip1, p53) in BxPC-3; type: cell-based, human
Description: (§4) Our initial studies examined the expression of 2 proteins involved in early signaling events (p21^Waf1/Cip1 and p53) and 1 late apoptotic event [cleavage of poly-ADP-ribose polymerase (PARP)] in vitro (not shown).

rhTrop-2/TACSTD2 = molecular target: T2, rhTrop-2/TACSTD2 (Homo sapiens, UniProt P09758); test: Surface plasmon resonance (BIACORE), Trop-2; type: binding; details: for Kd: low-density Trop-2 chip, three independent runs, read-out: binding affinity (KD)
T2 construct: purchased Sino Biological, Inc
T2 sequence (P09758 27-323): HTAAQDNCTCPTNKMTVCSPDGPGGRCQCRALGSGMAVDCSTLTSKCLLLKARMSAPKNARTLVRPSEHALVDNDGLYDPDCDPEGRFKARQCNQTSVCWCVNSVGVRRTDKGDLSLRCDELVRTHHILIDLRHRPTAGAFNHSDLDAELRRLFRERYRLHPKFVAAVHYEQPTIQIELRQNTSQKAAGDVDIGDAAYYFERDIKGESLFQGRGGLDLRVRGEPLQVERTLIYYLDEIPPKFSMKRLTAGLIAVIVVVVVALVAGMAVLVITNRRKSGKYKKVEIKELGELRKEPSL
Description: as §1

p21^Waf1/Cip1 and p53 [5] = test: Signaling events (p21Waf1/Cip1, p53) in Calu-3; type: cell-based, human
Description: as §4

MDA-MB-468 = test: ADCC LDH-release, MDA-MB-468; type: cell-based, human; details: for specific lysis (ADCC): MDA-MB-468, 33.3 nM, E:T 50:1, 4 h
Procedure: The next day, peripheral blood mononuclear effector cells (PBMCs) were freshly isolated from a donor and added to assigned wells on the reaction plate at an E:T ratio of 50:1. Acquisition of human PBMCs was done under the approval of the New England Institutional Review Board (Newton, MA). […] One set of wells received ADCC assay medium alone for background control and another set of wells received cells alone plus TritonX100 for maximum cells lysis control. The plate was incubated for 4 h at 37° C. After 4 h, target cell lysis was assessed by a homogenous fluorometric LDH release assay (Cyto Tox-One Homogenous Membrane Integrity Assay; Promega, Cat. G7891).
Data were analyzed by Microsoft Excel. Percent specific lysis was calculated as follows:
where: • Experimental: effector+target cells+antibody • Effector+Target Control: effector+target cells • Max. Lysis: target cells+Triton-X100 • Target Control: target cells only

CDC activity = type: cell-based

| Substance | alpha half-life of hRS7 IgG ([1]; iv, 200 ug) | beta half-life of hRS7 IgG ([1]; iv, 200 ug) [h] | Kd [2] [nM] | Mean Fluorescence Intensity, γH2AX (BxPC-3; BxPC-3, 20 μg/ml for 30 min) | tumor volume (TV) [3] [cm^3] | exposure time at which p53 upregulation is evident (p21^Waf1/Cip1 and p53 [4]) [h] | Kd (rhTrop-2/TACSTD2) [nM] | exposure time at which p53 upregulation is evident (p21^Waf1/Cip1 and p53 [5]) [h] | specific lysis (ADCC) (MDA-MB-468) [%] | CDC activity (CDC activity) | also measured |
| --- | --- | --- | --- | --- | --- | --- | --- | --- | --- | --- | --- |
| IMMU-132 | approximately 3 h | ~200 | 192 ± 47.6 | 5349 ± 234 | 0.36±0.25 | ≤ 24 | 0.26 ± 0.14 | ≤ 24 | 8.6±2.6 | no CDC activity | MRT of carrier hRS7 antibody [1]: ~12.5 days; half-life of intact conjugate ([1]; iv, 200 ug): 11 h; tumor-free mice after 20 weeks (Capan-1; 75 μCi 90Y-hPAM4 level, ADC alone, or their combination, n=10): 1 of 10; induction of γH2AX vs non-targeting control ADC (BxPC-3; BxPC-3, 30 min exposure): greater than two-fold induction; tolerability, body weight loss ([3]; in all murine studies): well tolerated in terms of body weight loss; tumor growth vs untreated and hA20-CL2A-SN-38 (COLO 205 tumors; 0.4 mg/kg SN-38 twice weekly x 4 weeks): significantly inhibited tumor growth; improvement in KD vs naked hRS7 (rhTrop-2/TACSTD2; BIACORE): 2 fold; loss of effector function (ADCC) (MDA-MB-468; three different cell lines): 60-70% |
| hRS7 IgG | approximately 3 h | ~200 | 92.4 ± 5.7 | 2297 ± 18 | 1.30±1.08 | 48 | 0.51 ± 0.04 | 48 | 29.8±2.6 | no CDC activity | anti-tumor activity of unconjugated antibodies (Capan-1; given alone): Neither unconjugated hPAM4 nor hRS7 antibodies had anti-tumor activity; Percent Positive, γH2AX (BxPC-3; BxPC-3, 20 μg/ml for 30 min, untreated 18.8 ± 6.3): 13.0 ± 0.6%; tumor volume (TV) (COLO 205 tumors; 0.4 mg/kg, q4dx8, 28-day treatment period): 1.77±0.93 cm^3 |

From patent publication US20240352145A1, “EFFICACY OF ANTI-TROP-2-SN-38 ANTIBODY DRUG CONJUGATES FOR THERAPY OF TUMORS RELAPSED/REFRACTORY TO CHECKPOINT INHIBITORS” (Immunomedics, Inc., priority 2016, published 2024)
